Test results from patent US20230295201A1 (Gilead Sciences, Inc., priority 2020, published 2023).
Read-outs that look alike come from different tables or passages of the source.

Legend:
Type in all cases: cell-based
[1] = test system: HRV10; test: HRV10 HELA EC50
[2] = test system: HRV14; test: HRV14 HELA EC50 (cytopathic effect in H1-HeLa cells); settings: 96 h, read-out: HRV14 HELA EC50
Method: (§1) H1-HeLa cells, cultured in complete RPMI 1640 medium containing 10% heat-inactivated FBS and 1% Penicillin/Streptomycin, were seeded in 96 well plates at 5000 cells/well one day prior to compound dosing and infection. The antiviral activity of each compound was measured in triplicate. Compounds were added directly to the cell cultures in serial 3-fold dilutions using the HP300 digital dispenser (Hewlett Packard, Palo Alto, CA) immediately prior to infection. The plates were transferred to BSL-2 containment and 100 μL of 1/4000 dilution of HRV14 virus stock was added to each well containing cells and serially diluted compounds. Each plate included 6 wells of infected untreated cells and 6 wells of cells containing 5 μM Rupintrivir that served as 0% and 100% virus inhibition control, respectively. Following the infection, test plates were incubated for 96 h in a tissue culture incubator set to 37° C./5% CO2. Following incubation, the H1-HeLa cells were removed from incubation and allowed to equilibrate to 25° C. Cell viability was determined by removing 100 μL of culture medium and adding 100 μL of Cell-Titer Glo viability reagent. The mixtures were incubated on a shaker for 10 minutes at 25° C., and the luminescence signal was quantified on an Envision luminescence plate reader.

[3] = test system: HRV1a; test: HRV1A HELA EC50 (cytopathic effect in H1-HeLa cells); settings: 96 h, read-out: HRV1A HELA EC50
Method: as §1, with “HRV1a” for “HRV14”

[4] = test system: HRV99; test: HRV99 EC50
[5] = test system: HRVc25 replicon; test: HRVc25 EC50 (replicon luciferase in H1-HeLa cells); settings: 48 hrs
Method: (§2) First, HRV replicon RNA is prepared. 5 ug of DNA Template (HRVc15 or HRVc25) is linearized with 2 μL of MluI enzyme in NEB buffer-3 in a final volume of 25 μL for 3 hours at 37° C. Following incubation, linearized DNA is purified on a PCR purification column and the following in vitro transcription is performed using the following conditions: 10 μL of RiboMAX Express T7 2× buffer, 1-8 μL of linear DNA template (1 μg), 0-7 μL nuclease free water, 2 μL enzyme mix T7 express. The final volume of 20 μL is mixed and incubated at 37° C. for 30 min. Following incubation, 1 μL of RQ1 RNase free DNase is added and the mixture is incubated at 37° C. for 15 min. The resulting RNA is then purified with the MegaClear Kit (Gibco Life Technologies cat #11835-030) and is eluted two times with 50 μL of elution buffer at 95° C. […] Replicon activity is then measured by a Renilla-Glo Luciferase Assay system. Prior to signal quantification, plates are removed from incubators and are allowed to equilibrate to 25° C. after 50 uL is removed from each well. […] Plates are then incubated for 20 min at 25° C. under gentle agitation and luciferase signal are determined with a 0.1 second detection setting using an EnVision luciferase quantification reader.

[6] = test system: HRVc15 replicon; test: HRVc15 EC50 (replicon luciferase in H1-HeLa cells); settings: 48 hrs
Method: as §2

SMILES | EC50 [1] [nM] | EC50 [2] [nM] | EC50 [3] [nM] | EC50 [4] [nM] | EC50 ([2]; H1-HeLa cells) [nM] | EC50 ([3]; H1-HeLa cells) [nM] | EC50 [5] [nM] | EC50 [6] [nM]
C[C@H](NP(=O)(OC[C@@]1(C#N)O[C@@H](c2ccc3c(N)ncnn23)[C@H](O)[C@@H]1O)Oc1ccccc1)C(=O)OCC(C)(C)C (stereo partly drawn) [Example 92, (2S)-neopentyl 2-(((((2R,3S,4R,5S)-5-(4-aminopyrrolo[2,1-f][1,2,4]triazin-7-yl)-2-cyano-3,4-dihydroxytetrahydrofuran-2-yl)methoxy)(phenoxy)phosphoryl)amino)propanoate] | 81 | 242 | 97 | 639 |  |  |  | 
CCC(CC)OC(=O)[C@H](C)NP(=O)(OC[C@@]1(C#N)O[C@@H](c2ccc3c(N)ncnn23)[C@H](O)[C@@H]1O)Oc1ccccc1 (stereo partly drawn) [Example 101, (2S)-pentan-3-yl 2-(((((2R,3S,4R,5S)-5-(4-aminopyrrolo[2,1-f][1,2,4]triazin-7-yl)-2-cyano-3,4-dihydroxytetrahydrofuran-2-yl)methoxy)(phenoxy)phosphoryl)amino)propanoate] | 1310 | 3430 | 1630 | 7340 |  |  |  | 
CCCCCCCCCCCCCCCCCCOC[C@H](COP(=O)(O)OC[C@@]1(C#N)O[C@@H](c2ccc3c(N)ncnn23)[C@H](O)[C@@H]1O)OCc1ccccc1 [Example 96, ((2R,3S,4R,5S)-5-(4-aminopyrrolo[2,1-f][1,2,4]triazin-7-yl)-2-cyano-3,4-dihydroxytetrahydrofuran-2-yl)methyl ((R)-2-(benzyloxy)-3-(octadecyloxy)propyl) hydrogen phosphate] | 2320 |  |  | 63900 | 12000 | 1580 |  | 
C[C@H](NP(=O)(OC[C@@]1(C#N)O[C@@H](c2ccc3c(N)ncnn23)[C@H](O)[C@@H]1O)Oc1ccccc1)C(=O)OC1CCCCC1 (stereo partly drawn) [Example 4, (2S)-cyclohexyl 2-(((((2R,3S,4R,5S)-5-(4-aminopyrrolo[2,1-f][1,2,4]triazin-7-yl)-2-cyano-3,4-dihydroxytetrahydrofuran-2-yl)methoxy)(phenoxy)phosphoryl)amino)propanoate] | 144 | 445 | 190 | 1090 |  |  |  | 
CC(C)OC(=O)[C@H](C)NP(=O)(OC[C@@]1(C#N)O[C@@H](c2ccc3c(N)ncnn23)[C@H](O)[C@@H]1O)Oc1ccccc1 (mixture of isomers) [Example 77, Isopropyl ((((2R,3S,4R,5S)-5-(4-aminopyrrolo[2,1-f][1,2,4]triazin-7-yl)-2-cyano-3,4-dihydroxytetrahydrofuran-2-yl)methoxy)(phenoxy)phosphoryl)-L-alaninate] | 636 | 1810 | 736 | 4940 |  |  |  | 
CCC(CC)COC(=O)[C@H](CC)NP(=O)(OC[C@@]1(C#N)O[C@@H](c2ccc3c(N)ncnn23)[C@H](O)[C@@H]1O)Oc1ccccc1 (mixture of isomers) [Example 88, (2S)-2-ethylbutyl 2-(((((2R,3S,4R,5S)-5-(4-aminopyrrolo[2,1-f][1,2,4]triazin-7-yl)-2-cyano-3,4-dihydroxytetrahydrofuran-2-yl)methoxy)(phenoxy)phosphoryl)amino)butanoate] | 608 | 1690 | 581 | 4540 |  |  |  | 
C[C@H](N[P@](=O)(OC[C@@]1(C#N)O[C@@H](c2ccc3c(N)ncnn23)[C@H](O)[C@@H]1O)Oc1ccccc1)C(=O)OC1CCCCC1 (single isomer, unassigned) [Example 6] |  |  |  |  |  |  | 7 | 9
CCC(CC)COC(=O)[C@@H](C)NP(=O)(OC[C@@]1(C#N)O[C@@H](c2ccc3c(N)ncnn23)[C@H](O)[C@@H]1O)Oc1ccccc1 (stereo partly drawn) [Example 82, (2R)-2-ethylbutyl 2-(((((2R,3S,4R,5S)-5-(4-aminopyrrolo[2,1-f][1,2,4]triazin-7-yl)-2-cyano-3,4-dihydroxytetrahydrofuran-2-yl)methoxy)(phenoxy)phosphoryl)amino)propanoate] | 2680 | 9190 | 2780 | 19300 |  |  |  | 
CC[C@H](NP(=O)(OC[C@@]1(C#N)O[C@@H](c2ccc3c(N)ncnn23)[C@H](O)[C@@H]1O)Oc1ccccc1)C(=O)OC1CCCCC1 (mixture of isomers) [Example 103, (2S)-cyclohexyl 2-(((((2R,3S,4R,5S)-5-(4-aminopyrrolo[2,1-f][1,2,4]triazin-7-yl)-2-cyano-3,4-dihydroxytetrahydrofuran-2-yl)methoxy)(phenoxy)phosphoryl)amino)butanoate] | 916 | 2550 | 1020 | 4740 |  |  |  | 
C[C@H](NP(=O)(OC[C@@]1(C#N)O[C@@H](c2ccc3c(N)ncnn23)[C@H](O)[C@@H]1O)Oc1ccccc1)C(=O)OCC1CC1 (mixture of isomers) [Example 8, (2S)-cyclopropylmethyl 2-(((((2R,3S,4R,5S)-5-(4-aminopyrrolo[2,1-f][1,2,4]triazin-7-yl)-2-cyano-3,4-dihydroxytetrahydrofuran-2-yl)methoxy)(phenoxy)phosphoryl)amino)propanoate] | 179 | 615 | 211 | 1340 |  |  |  | 
